Laboratory results as given in US7229630B2, “Stabilized formulations of alpha adrenergic receptor antagonists and the uses thereof” (Novalar Pharmaceuticals, Inc., priority 2002, dated 2007).
Counter-ions that a name gives are not always drawn.

Tests used:
[1] = Effect of buffer concentration on stability at 60° C. (HPLC, pH); type: physicochemical; details: for pH: 60° C.
Procedure: (§1) The drug is monitored at a detection wavelength of 232 nm.
Tightly sealed glass vials containing the test solutions were placed in an oven at 40° C. or 60° C. All samples were stored in the dark. Aliquots were removed at designated time points for HPLC analysis and pH measurement. All samples were analyzed without dilution.
In conjunction with HPLC analysis, pH was measured. The measurement was performed using the same samples as used for the HPLC analysis. The pH meter was calibrated using pH 4.00 and 7.00 buffer standards prior to each measurement.
Samples were incubated at 60° C. with scheduled testing performed at day 0, 2, 7, and 14. The various buffer concentrations were prepared by diluting the 50 mM buffer with water and re-examining the pH value to determine if the pH 3.5 was constant. Measurements of pH were performed after HPLC analysis of the samples.

[2] = Effect of additives on stability at 60° C. (HPLC); type: physicochemical; details: for Rate Constant: zero-order
Description: as §1
The additives in this study are selected from five groups of injectable excipients namely, tonicity modifiers (NaCl and d-mannitol), metal chelators (EDTA), antioxidants (sodium metabisulfite), complexing agents (α-cyclodextrin and niacinamide) and solvents (glycerol and polypropylene glycol). A tonicity modifier is required for adjusting the phentolamine mesylate solution to isotonic. […] Complexing agents were applied in the hope that a possible formation of an inclusion complex (by α-cyclodextrin) or stacking complex (by niacinamide) with phentolamine would modify the rate of hydrolytic degradation of the drug substance. Solvents were added to reduce the dielectric constant of the vehicle and were intended to slow the rate of degradation due to solvent polarity.
The pH value of the solutions was readjusted to pH 3.5, as required.
The 25% glycerol (25 g in 100 ml total volume with water) and 25% polypropylene glycol (25 g in 100 ml total volume with water) solutions had their buffer strength adjusted by addition of acetic acid followed by addition of 2 N NaOH for pH adjustment to pH 3.5 followed by addition of the drug to 0.1 mg/ml.
All samples were placed in 10 ml glass serum vials, stoppered with rubber closures with an inert coating (Daikyo Flurotec by WEST Pharmaceutical), and sealed with flip-top caps after sampling. Vials were placed at 60° C. after the weights were recorded.
Sampling occurred at the initial time point and on days 2, 7, and 14. Vials were weighed, sampled, sealed, re-weighed, and replaced under the selected storage condition until testing at the subsequent time point. Records indicate no significant weight loss during storage.

[3] = 0 mM sodium acetate (un-buffered) pH 3.5, 60° C., Day 0
[4] = 0 mM sodium acetate (un-buffered) pH 3.5, 60° C., Day 2
[5] = 0 mM sodium acetate (un-buffered) pH 3.5, 60° C., Day 7
[6] = 0 mM sodium acetate (un-buffered) pH 3.5, 60° C., Day 14
[7] = 5 mM sodium acetate pH 3.5, 60° C., Day 0
[8] = 5 mM sodium acetate pH 3.5, 60° C., Day 2
[9] = 5 mM sodium acetate pH 3.5, 60° C., Day 7
[10] = 5 mM sodium acetate pH 3.5, 60° C., Day 14
[11] = 10 mM sodium acetate pH 3.5, 60° C., Day 0
[12] = 10 mM sodium acetate pH 3.5, 60° C., Day 2
[13] = 10 mM sodium acetate pH 3.5, 60° C., Day 7
[14] = 10 mM sodium acetate pH 3.5, 60° C., Day 14
[15] = 50 mM sodium acetate pH 3.5, 60° C., Day 7
[16] = 50 mM sodium acetate pH 3.5, 60° C., Day 14
[17] = EDTA 0.7 mg/ml, sodium acetate pH 3.5, 60° C., Day 14
[18] = Glycerol 25% w/v, sodium acetate pH 3.5, 60° C., Day 7
[19] = NaCl 50 mg/ml, sodium acetate pH 3.5, 60° C., Day 0
[20] = NaCl 50 mg/ml, sodium acetate pH 3.5, 60° C., Day 2
[21] = NaCl 50 mg/ml, sodium acetate pH 3.5, 60° C., Day 7
[22] = NaCl 50 mg/ml, sodium acetate pH 3.5, 60° C., Day 14
[23] = Niacinamide 50 mg/ml, sodium acetate pH 3.5, 60° C., Day 0
[24] = Niacinamide 50 mg/ml, sodium acetate pH 3.5, 60° C., Day 2
[25] = Niacinamide 50 mg/ml, sodium acetate pH 3.5, 60° C., Day 7
[26] = Niacinamide 50 mg/ml, sodium acetate pH 3.5, 60° C., Day 14
[27] = No additive, pH 3.5, 60° C., Day 0
[28] = No additive, pH 3.5, 60° C., Day 2
[29] = No additive, pH 3.5, 60° C., Day 7
[30] = No additive, pH 3.5, 60° C., Day 14
[31] = Sodium metabisulfite 0.5 mg/ml, sodium acetate pH 3.5, 60° C., Day 0
[32] = Sodium metabisulfite 0.5 mg/ml, sodium acetate pH 3.5, 60° C., Day 7
[33] = Sodium metabisulfite 0.5 mg/ml, sodium acetate pH 3.5, 60° C., Day 14
[34] = d-Mannitol 40 mg/ml, sodium acetate pH 3.5, 60° C., Day 0
[35] = d-Mannitol 40 mg/ml, sodium acetate pH 3.5, 60° C., Day 2
[36] = d-Mannitol 40 mg/ml, sodium acetate pH 3.5, 60° C., Day 7
[37] = d-Mannitol 40 mg/ml, sodium acetate pH 3.5, 60° C., Day 14

Cc1ccc(N(CC2=NCCN2)c2cccc(O)c2)cc1 [Phentolamine Mesylate, phentolamine mesylate]
Phentolamine Concentration [1, 3]: 90 µg/mL
Phentolamine Purity [1, 3]: 99 % peak area
Phentolamine Concentration [1, 4]: 92 µg/mL
Phentolamine Purity [1, 4]: 99 % peak area
Phentolamine Concentration [1, 5]: 82 µg/mL
Phentolamine Purity [1, 5]: 98 % peak area
Phentolamine Concentration [1, 6]: 77 µg/mL
Phentolamine Purity [1, 6]: 97 % peak area
pH ([1]; 0 mM sodium acetate (un-buffered), Day 0): 3.6
pH ([1]; 0 mM sodium acetate (un-buffered), Day 2): 4.4
pH ([1]; 0 mM sodium acetate (un-buffered), Day 7): 5.1
pH ([1]; 0 mM sodium acetate (un-buffered), Day 14): 5.3
Phentolamine Concentration [1, 7]: 99 µg/mL
Phentolamine Purity [1, 7]: 99 % peak area
Phentolamine Concentration [1, 8]: 97 µg/mL
Phentolamine Purity [1, 8]: 99 % peak area
Phentolamine Concentration [1, 9]: 94 µg/mL
Phentolamine Purity [1, 9]: 98 % peak area
Phentolamine Concentration [1, 10]: 92 µg/mL
Phentolamine Purity [1, 10]: 98 % peak area
pH ([1]; 5 mM sodium acetate, Day 0): 3.5
pH ([1]; 5 mM sodium acetate, Day 2): 3.8
pH ([1]; 5 mM sodium acetate, Day 7): 3.8
pH ([1]; 5 mM sodium acetate, Day 14): 3.8
Phentolamine Concentration [1, 11]: 100 µg/mL
Phentolamine Purity [1, 11]: 99 % peak area
Phentolamine Concentration [1, 12]: 97 µg/mL
Phentolamine Purity [1, 12]: 99 % peak area
Phentolamine Concentration [1, 13]: 96 µg/mL
Phentolamine Purity [1, 13]: 98 % peak area
Phentolamine Concentration [1, 14]: 92 µg/mL
Phentolamine Purity [1, 14]: 98 % peak area
pH ([1]; 10 mM sodium acetate, Day 0): 3.5
pH ([1]; 10 mM sodium acetate, Day 2): 3.7
pH ([1]; 10 mM sodium acetate, Day 7): 3.8
pH ([1]; 10 mM sodium acetate, Day 14): 3.7
Phentolamine Purity ([1]; 50 mM sodium acetate pH 3.5, 60° C., Day 0): 98 % peak area
Phentolamine Purity ([1]; 50 mM sodium acetate pH 3.5, 60° C., Day 2): 98 % peak area
Phentolamine Concentration [1, 15]: 99 µg/mL
Phentolamine Purity [1, 15]: 98 % peak area
Phentolamine Concentration [1, 16]: 96 µg/mL
Phentolamine Purity [1, 16]: 96 % peak area
pH ([1]; 50 mM sodium acetate, Day 0): 3.5
pH ([1]; 50 mM sodium acetate, Day 2): 3.6
pH ([1]; 50 mM sodium acetate, Day 7): 3.6
pH ([1]; 50 mM sodium acetate, Day 14): 3.6
rate of degradation vs un-buffered control (0 mM) ([1]; 5, 10 and 50 mM sodium acetate, pH 3.5, 60° C.): comparable and was an improvement over the un-buffered control
Phentolamine Purity ([2]; EDTA 0.7 mg/ml, sodium acetate pH 3.5, 60° C., Day 0): 99 % Peak Area
Phentolamine Purity ([2]; EDTA 0.7 mg/ml, sodium acetate pH 3.5, 60° C., Day 2): 99 % Peak Area
Phentolamine Purity ([2]; EDTA 0.7 mg/ml, sodium acetate pH 3.5, 60° C., Day 7): 99 % Peak Area
Phentolamine Concentration [2, 17]: 99 µg/mL
Phentolamine Purity [2, 17]: 98 % Peak Area
Phentolamine Purity ([2]; Glycerol 25% w/v, sodium acetate pH 3.5, 60° C., Day 0): 98 % Peak Area
Phentolamine Purity ([2]; Glycerol 25% w/v, sodium acetate pH 3.5, 60° C., Day 2): 98 % Peak Area
Phentolamine Concentration [2, 18]: 120 µg/mL
Phentolamine Purity [2, 18]: 93 % Peak Area
Phentolamine Purity ([2]; Glycerol 25% w/v, sodium acetate pH 3.5, 60° C., Day 14): 94 % Peak Area
Phentolamine Concentration [2, 19]: 94 µg/mL
Phentolamine Purity [2, 19]: 94 % Peak Area
Phentolamine Concentration [2, 20]: 98 µg/mL
Phentolamine Purity [2, 20]: 99 % Peak Area
Phentolamine Concentration [2, 21]: 80 µg/mL
Phentolamine Purity [2, 21]: 89 % Peak Area
Phentolamine Concentration [2, 22]: 74 µg/mL
Phentolamine Purity [2, 22]: 85 % Peak Area
Phentolamine Concentration [2, 23]: 90 µg/mL
Phentolamine Purity [2, 23]: 99 % Peak Area
Phentolamine Concentration [2, 24]: 90 µg/mL
Phentolamine Purity [2, 24]: 100 % Peak Area
Phentolamine Concentration [2, 25]: 78 µg/mL
Phentolamine Purity [2, 25]: 93 % Peak Area
Phentolamine Concentration [2, 26]: 92 µg/mL
Phentolamine Purity [2, 26]: 90 % Peak Area
Phentolamine Concentration [2, 27]: 90 µg/mL
Phentolamine Purity [2, 27]: 99 % Peak Area
Phentolamine Concentration [2, 28]: 92 µg/mL
Phentolamine Purity [2, 28]: 98 % Peak Area
Phentolamine Concentration [2, 29]: 82 µg/mL
Phentolamine Purity [2, 29]: 98 % Peak Area
Phentolamine Concentration [2, 30]: 77 µg/mL
Phentolamine Purity [2, 30]: 97 % Peak Area
Phentolamine Purity ([2]; Polypropylene glycol 25% w/v, sodium acetate pH 3.5, 60° C., Day 0): 93 % Peak Area
Phentolamine Purity ([2]; Polypropylene glycol 25% w/v, sodium acetate pH 3.5, 60° C., Day 2): 97 % Peak Area
Phentolamine Purity ([2]; Polypropylene glycol 25% w/v, sodium acetate pH 3.5, 60° C., Day 7): 93 % Peak Area
Phentolamine Purity ([2]; Polypropylene glycol 25% w/v, sodium acetate pH 3.5, 60° C., Day 14): 90 % Peak Area
Phentolamine Concentration [2, 31]: 97 µg/mL
Phentolamine Purity [2, 31]: 97 % Peak Area
Phentolamine Purity ([2]; Sodium metabisulfite 0.5 mg/ml, sodium acetate pH 3.5, 60° C., Day 2): 99 % Peak Area
Phentolamine Concentration [2, 32]: 84 µg/mL
Phentolamine Purity [2, 32]: 95 % Peak Area
Phentolamine Concentration [2, 33]: 74 µg/mL
Phentolamine Purity [2, 33]: 92 % Peak Area
Phentolamine Concentration [2, 34]: 98 µg/mL
Phentolamine Purity [2, 34]: 96 % Peak Area
Phentolamine Concentration [2, 35]: 96 µg/mL
Phentolamine Purity [2, 35]: 97 % Peak Area
Phentolamine Concentration [2, 36]: 98 µg/mL
Phentolamine Purity [2, 36]: 96 % Peak Area
Phentolamine Concentration [2, 37]: 91 µg/mL
Phentolamine Purity [2, 37]: 97 % Peak Area
impact of additive on stability ([2]; d-Mannitol and disodium EDTA, based on the rate constant, 60° C.): improve stability
impact of additive on recovery vs no-additive control ([2]; sodium metabisulfite, NaCl, glycerol, polypropylene glycol and niacinamide, 60° C.): negative impact on the recovery
Rate Constant ([2]; EDTA 0.7 mg/ml, sodium acetate pH 3.5, 60° C.): 0.438 µg/mL/day
Rate Constant ([2]; Glycerol 25% w/v, sodium acetate pH 3.5, 60° C.): 0.726 µg/mL/day
Rate Constant ([2]; NaCl 50 mg/ml, sodium acetate pH 3.5, 60° C.): 1.663 µg/mL/day
Rate Constant ([2]; Niacinamide 50 mg/ml, sodium acetate pH 3.5, 60° C.): -0.026 µg/mL/day
Rate Constant ([2]; No additive, pH 3.5, 60° C.): 1.027 µg/mL/day
Rate Constant ([2]; Polypropylene glycol 25% w/v, sodium acetate pH 3.5, 60° C.): 1.019 µg/mL/day
Rate Constant ([2]; Sodium metabisulfite 0.5 mg/ml, sodium acetate pH 3.5, 60° C.): 1.903 µg/mL/day
Rate Constant ([2]; d-Mannitol 40 mg/ml, sodium acetate pH 3.5, 60° C.): 0.416 µg/mL/day
Rate Constant ([2]; α-Cyclodextrin 50 mg/ml, sodium acetate pH 3.5, 60° C.): 0.501 µg/mL/day
Phentolamine Purity ([2]; α-Cyclodextran 50 mg/ml, sodium acetate pH 3.5, 60° C., Day 0): 98 % Peak Area
Phentolamine Purity ([2]; α-Cyclodextran 50 mg/ml, sodium acetate pH 3.5, 60° C., Day 2): 99 % Peak Area
Phentolamine Purity ([2]; α-Cyclodextran 50 mg/ml, sodium acetate pH 3.5, 60° C., Day 7): 98 % Peak Area
Phentolamine Purity ([2]; α-Cyclodextran 50 mg/ml, sodium acetate pH 3.5, 60° C., Day 14): 98 % Peak Area
Phentolamine Concentration ([2]; α-Cyclodextrin 50 mg/ml, sodium acetate pH 3.5, 60° C., Day 2): 99 µg/mL
Phentolamine Concentration ([2]; α-Cyclodextrin 50 mg/ml, sodium acetate pH 3.5, 60° C., Day 7): 96 µg/mL
Phentolamine Concentration ([2]; α-Cyclodextrin 50 mg/ml, sodium acetate pH 3.5, 60° C., Day 14): 94 µg/mL
impact of additive on stability ([2]; α-cyclodextrin, based on purity value, 60° C.): negligible
